The values that follow come from ChEMBL document CHEMBL2396614, “Affinity-based screening of MDM2/MDMX-p53 interaction inhibitors by chemical array: identification of novel peptidic inhibitors” (Bioorg Med Chem Lett, 2013).

As a reminder, the IC50 is the concentration needed to halve the response being measured. One may read the EC50 as the concentration that produces a half-maximal response. A low value points to higher potency in that assay.

For series [1], the target named is E3 ubiquitin-protein ligase Mdm2 (Homo sapiens, UniProt Q00987). As to the kind of experiment: Inhibition of MDM2 (unknown origin) binding to FAM-LTFEHYWAQLTS-NH2 after 30 mins by fluorescence polarization assay. In general terms: In fluorescence polarisation assays a small probe gives low polarisation when free and higher when bound to something large.
Sequence of E3 ubiquitin-protein ligase Mdm2 (Q00987 whole entry): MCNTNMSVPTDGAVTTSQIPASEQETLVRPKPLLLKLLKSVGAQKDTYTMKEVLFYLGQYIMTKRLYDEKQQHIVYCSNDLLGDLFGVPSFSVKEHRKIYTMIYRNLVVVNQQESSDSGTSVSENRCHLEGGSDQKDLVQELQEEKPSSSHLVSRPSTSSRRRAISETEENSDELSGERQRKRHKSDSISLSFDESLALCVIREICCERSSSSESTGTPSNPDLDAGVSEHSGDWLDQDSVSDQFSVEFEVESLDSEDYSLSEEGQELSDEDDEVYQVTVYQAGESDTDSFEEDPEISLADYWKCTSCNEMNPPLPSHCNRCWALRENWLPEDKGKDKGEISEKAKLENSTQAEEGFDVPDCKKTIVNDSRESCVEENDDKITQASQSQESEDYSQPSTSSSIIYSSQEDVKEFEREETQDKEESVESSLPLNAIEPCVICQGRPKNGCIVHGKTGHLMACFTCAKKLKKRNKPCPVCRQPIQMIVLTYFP
Series [2] can be described thus: Solubility of the compound in DMEM medium at > 30 uM. The series is classed as physicochemical.
Another series relates to A549. Kind of series: Growth inhibition of human A549 cells after 72 hrs by MTS assay. The format is functional, cell-based. The settings on record: A549, 72 h.
Another series has as its target T1, Protein Mdm4 (Homo sapiens, UniProt O15151).
T1 sequence (O15151 whole entry): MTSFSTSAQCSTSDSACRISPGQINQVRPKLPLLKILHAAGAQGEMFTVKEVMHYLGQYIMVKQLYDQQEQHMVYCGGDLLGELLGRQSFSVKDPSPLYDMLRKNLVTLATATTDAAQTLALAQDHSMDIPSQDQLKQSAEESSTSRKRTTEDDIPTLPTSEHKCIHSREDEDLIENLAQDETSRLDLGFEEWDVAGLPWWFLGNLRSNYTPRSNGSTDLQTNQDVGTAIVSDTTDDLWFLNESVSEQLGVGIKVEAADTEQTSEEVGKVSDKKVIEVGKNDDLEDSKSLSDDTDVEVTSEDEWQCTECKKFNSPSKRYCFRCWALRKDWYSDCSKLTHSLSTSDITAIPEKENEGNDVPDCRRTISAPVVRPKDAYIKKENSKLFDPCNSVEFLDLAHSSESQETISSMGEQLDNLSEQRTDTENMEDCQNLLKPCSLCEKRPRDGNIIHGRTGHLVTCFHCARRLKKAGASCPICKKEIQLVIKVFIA
Kind of series: Inhibition of MDMX (unknown origin) binding to FAM-LTFEHYWAQLTS-NH2 after 30 mins by fluorescence polarization assay.

Residues, ends and D or L forms follow the SMILES beside them. *: point of attachment. Mts = Cc1cc(C)c(S(=O)(=O)*)c(C)c1; Npys = O=[N+]([O-])c1cccnc1S*; X1 = COc1ccc(COC(=O)*)cc1; Boc = CC(C)(C)OC(=O)*; OBn = c1ccc(CO*)cc1; X2 = C1CCCC(O*)CC1; NHNH2 = NN*

In the case of `COc1ccc(COC(=O)N[C@H](C(=O)N[C@@H](CCC(C)=O)C(=O)N[C@@H](Cc2cn(S(=O)(=O)c3c(C)cc(C)cc3C)c3ccccc23)C(=O)N[C@@H](CC(C)C)C(=O)NN)C(C)C)cc1`, the IC50 in series [1] is 8.51 µM; at Protein Mdm4, 32.4 µM. Also, the solubility entry in series [2] is listed as “Insoluble”. Moreover, in the series on A549, the EC50 was more than 30 µM.

As to `CC[C@H](C)[C@H](NC(=O)[C@H](Cc1ccccc1)NC(=O)[C@H](CSSc1ncccc1[N+](=O)[O-])NC(=O)OC(C)(C)C)C(=O)N[C@@H](CCCNC(=N)NS(=O)(=O)c1c(C)cc(C)cc1C)C(=O)OC` (Boc-C(Npys)FIR(Mts)-OMe), the IC50 in series [1] came out at 22.2 µM; on Protein Mdm4 it was 42.1 µM. Further, the response with A549 was half-maximal at 13.7 µM (EC50).

Turning to `COc1ccc(COC(=O)N[C@@H](C)C(=O)N[C@@H](CCC(=O)OCc2ccccc2)C(=O)N[C@@H](CC(C)C)C(=O)N[C@H](C(=O)N[C@@H](CC(=O)OC2CCCCCC2)C(=O)N[C@@H](C)C(=O)NN)C(C)C)cc1` (X1-AE(OBn)LVD(X2)A-NHNH2), the IC50 in series [1] was 21.3 µM; on Protein Mdm4 it was 52.5 µM. In addition, the solubility result in series [2] was “Insoluble”. The EC50 in the series on A549 is more than 30 µM.
